These results are taken from US20100287636A1, “COMPOSITIONS AND METHODS FOR INHIBITING INDUCIBLE T CELL KINASE (ITK) AND TREATING ASTHMA AND BRONCHIAL INFLAMMATIONS” (San Diego State University Foundation, dba San Diego State …, priority 2007, published 2010).

No end group written: not given here.

Data set [1] has as its target T1, ITK (Homo sapiens, UniProt Q08881).
T1 construct: endogenous in cells; host or cells: Jurkat T cells
T1 sequence (Q08881 1-620): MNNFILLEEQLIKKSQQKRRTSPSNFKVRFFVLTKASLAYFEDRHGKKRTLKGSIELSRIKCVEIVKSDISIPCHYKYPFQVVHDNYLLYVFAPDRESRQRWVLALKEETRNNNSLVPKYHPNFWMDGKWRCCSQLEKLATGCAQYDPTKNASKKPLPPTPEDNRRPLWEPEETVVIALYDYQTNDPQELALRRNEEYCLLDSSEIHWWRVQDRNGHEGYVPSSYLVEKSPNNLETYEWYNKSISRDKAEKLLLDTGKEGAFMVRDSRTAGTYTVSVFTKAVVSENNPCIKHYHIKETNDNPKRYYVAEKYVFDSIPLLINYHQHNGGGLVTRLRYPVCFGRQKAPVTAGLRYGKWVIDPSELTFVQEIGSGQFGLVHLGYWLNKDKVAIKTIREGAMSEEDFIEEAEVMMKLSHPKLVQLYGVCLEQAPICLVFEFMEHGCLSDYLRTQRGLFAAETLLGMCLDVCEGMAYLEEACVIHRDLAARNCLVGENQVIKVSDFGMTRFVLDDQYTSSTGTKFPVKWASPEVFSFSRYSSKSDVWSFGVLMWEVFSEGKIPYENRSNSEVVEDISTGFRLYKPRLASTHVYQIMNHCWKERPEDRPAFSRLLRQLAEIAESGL
The data set can be described thus: phosphorylation of ITK on Tyr 511 in Jurkat cells (flow cytometry). The format is cell-based. Particulars: text does not separate Jurkat and mouse splenocytes, read-out: peptide concentration for fifty percent inhibition of ITK phosphorylation. Here is the method: (§1) FIG. 6. […] Following stimulation the cells were stained with specific anti-ITK phosphotyrosine antibodies obtained from a commercial source (BD Biosciences) and following the manufacturer's instructions for intracytoplasmic staining. The stained samples were analyzed in a flow cytometer and the percent phosphorylation related to control (100%) was quantified. […] Fifty percent inhibition was achieved by approximately 1 μM peptide
For orientation: Flow cytometry measures light scatter and fluorescence of single cells or particles in a stream.

Data set [2] has as its target T2, ITK (Mus musculus, UniProt Q03526).
T2 construct: endogenous in cells; host or cells: primary mouse splenic lymphocytes
T2 sequence (Q03526 1-625): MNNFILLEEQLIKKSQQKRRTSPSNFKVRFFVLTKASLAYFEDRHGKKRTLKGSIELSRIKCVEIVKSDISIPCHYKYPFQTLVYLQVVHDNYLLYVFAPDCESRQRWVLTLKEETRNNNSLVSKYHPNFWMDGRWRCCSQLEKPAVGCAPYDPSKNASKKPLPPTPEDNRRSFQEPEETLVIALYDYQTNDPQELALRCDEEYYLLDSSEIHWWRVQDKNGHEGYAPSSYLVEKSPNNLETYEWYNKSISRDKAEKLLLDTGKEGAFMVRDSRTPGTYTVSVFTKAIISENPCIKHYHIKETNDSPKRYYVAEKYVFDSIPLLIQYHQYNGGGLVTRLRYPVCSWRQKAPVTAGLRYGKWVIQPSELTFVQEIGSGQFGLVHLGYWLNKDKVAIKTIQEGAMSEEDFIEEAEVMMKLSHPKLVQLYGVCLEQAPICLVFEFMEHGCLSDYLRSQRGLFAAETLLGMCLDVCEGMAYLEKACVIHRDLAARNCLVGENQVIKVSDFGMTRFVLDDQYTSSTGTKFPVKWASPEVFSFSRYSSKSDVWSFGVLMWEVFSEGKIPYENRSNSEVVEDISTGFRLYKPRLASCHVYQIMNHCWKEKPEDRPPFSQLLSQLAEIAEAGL
The data set is described as follows: phosphorylation of ITK on Tyr 511 in mouse splenocytes (flow cytometry). The format is cell-based. Particulars: text does not separate Jurkat and mouse splenocytes, read-out: peptide concentration for fifty percent inhibition of ITK phosphorylation.
From the text: In view of the significant degree of ITK-SLP 76 inhibition mediated by the exemplary arginine-SLP 76 peptide conjugate of the invention, henceforth called R9-QQP, the next question was whether the exemplary R9-QQP peptide can inhibit the phosphorylation of ITK. This is important because it represents an accurate index of ITK activity; see e.g., referenced (14), below. Furthermore, the data described above have been performed by using the Jurkat T cell line. Even though this is a very useful cellular model for research, it is a leukemic cell line and thus, data obtained with this model should be confirmed in a more normal physiological substrate. Therefore, we also tested the effect of R9-QQP on primary mouse splenic lymphocytes.
as §1

A further data set deals with Jurkat cells. The data set is described as follows: viability measurements on Jurkat cells. It counts as cell-based. The following applies: highest concentration tested.
The next data set deals with T3, SH3 domain of ITK (Mus musculus, UniProt Q03526).
T3 sequence (Q03526 177-237 limits assumed): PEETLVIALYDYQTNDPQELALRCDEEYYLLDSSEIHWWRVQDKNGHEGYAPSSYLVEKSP
Particulars: chemical shift perturbation assays, reference (17); read-out: Kd of the in vitro interaction between peptide and the SH3 domain of ITK; cited from earlier work.

For the next data set, the target named is T4, ITK-SLP76 interaction (Homo sapiens, UniProt Q08881).
T4 construct: endogenous in cells; host or cells: Jurkat T cells
T4 sequence (Q08881 1-620): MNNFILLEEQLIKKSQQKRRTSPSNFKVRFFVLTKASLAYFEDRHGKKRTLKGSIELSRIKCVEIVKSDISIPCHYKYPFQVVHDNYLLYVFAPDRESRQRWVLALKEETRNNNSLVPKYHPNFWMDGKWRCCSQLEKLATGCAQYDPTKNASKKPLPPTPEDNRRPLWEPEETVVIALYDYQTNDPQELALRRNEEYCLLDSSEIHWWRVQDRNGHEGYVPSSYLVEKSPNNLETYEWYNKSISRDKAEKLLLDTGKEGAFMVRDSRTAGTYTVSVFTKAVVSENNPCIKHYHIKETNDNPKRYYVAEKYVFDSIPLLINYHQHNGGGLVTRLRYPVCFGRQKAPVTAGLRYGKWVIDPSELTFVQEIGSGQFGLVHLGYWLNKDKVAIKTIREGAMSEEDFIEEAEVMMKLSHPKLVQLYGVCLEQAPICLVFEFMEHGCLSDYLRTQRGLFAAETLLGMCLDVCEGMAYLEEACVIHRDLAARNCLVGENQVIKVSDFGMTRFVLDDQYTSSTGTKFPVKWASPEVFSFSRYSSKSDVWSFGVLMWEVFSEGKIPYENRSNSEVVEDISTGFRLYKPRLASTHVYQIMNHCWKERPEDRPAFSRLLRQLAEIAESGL
The data set can be described thus: inhibition of inducible ITK-SLP76 association in stimulated Jurkat cells (co-immunoprecipitation). The format is cell-based. The method, then: (§2) FIG. 1. Inducible Association between ITK and SLP76: Jurkat T cells were stimulated through their TCR for various periods of time and then lysed. Lysates were treated with antibody to SLP-76 (IP: anti-SLP76) and the immune complexes were resolved by gel electrophoresis. The resolved proteins were transferred onto a membrane where ITK and SLP76 were visualized by probing with specific antibodies reactive with these proteins. First, ITK was probed (IB: anti-ITK) and subsequently SLP76 (IB: anti-SLP76). […] The interpretation is that ITK and SLP76 participate in a stimulation inducible signaling complex. Furthermore, the association of ITK and SLP76 in this complex is time dependent. It happens at one (1) minute post stimulation and then the two proteins dissociate.
(§3) FIG. 4. Inhibition of ITK-SLP76 inducible association by the polyArg-SLP76 peptide conjugate of the invention: We next addressed the important question of whether the presence of the exemplary SLP76 peptide of the invention disrupts the physical association between ITK and SLP76. Jurkat cells were stimulated as described under FIG. 1 above in the presence or absence of various concentrations of the exemplary Arg-conjugated SLP76 peptide of the invention. […] This index was calculated by correcting the ITK signals for the total of SLP 76 signal in each lane and then calculating the ratio over the non-stimulated control. […]

Data set [3] concerns the target T5, Inducible T cell Kinase (ITK), endogenous in Jurkat T cells (human, UniProt Q08881 1-620).
T5 construct: Endogenous intracellular ITK from Jurkat T cell lysates; The tie rests on Jurkat being a human T cell line
T5 sequence: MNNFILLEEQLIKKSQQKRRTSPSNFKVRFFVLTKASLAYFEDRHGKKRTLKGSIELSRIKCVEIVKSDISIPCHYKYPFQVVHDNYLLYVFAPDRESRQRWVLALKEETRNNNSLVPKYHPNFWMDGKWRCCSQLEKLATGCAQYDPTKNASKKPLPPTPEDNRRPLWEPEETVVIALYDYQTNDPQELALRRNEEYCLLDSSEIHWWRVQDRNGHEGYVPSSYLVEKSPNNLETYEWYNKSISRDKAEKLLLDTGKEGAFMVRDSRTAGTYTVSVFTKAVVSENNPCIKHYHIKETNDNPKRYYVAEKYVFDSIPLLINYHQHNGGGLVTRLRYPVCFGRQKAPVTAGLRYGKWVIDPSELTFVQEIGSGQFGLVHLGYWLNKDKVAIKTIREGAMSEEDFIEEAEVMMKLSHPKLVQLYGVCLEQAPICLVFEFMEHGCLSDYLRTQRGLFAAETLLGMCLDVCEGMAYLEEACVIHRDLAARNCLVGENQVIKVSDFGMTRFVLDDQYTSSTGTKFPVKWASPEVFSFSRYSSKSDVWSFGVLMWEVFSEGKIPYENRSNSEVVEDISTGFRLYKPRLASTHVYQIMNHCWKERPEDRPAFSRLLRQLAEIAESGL
The data set is described as follows: co-IP from TCR-stimulated Jurkat T cell lysates (IP anti-SLP76, IB anti-ITK). Here is the method:
as §2

Data set [4] addresses R9-Scrambled arginine-SLP 76 peptide conjugate (R9-SCR).
For data set [5], the target named is T6, R9 (nine Arginine amino acids by themselves).
T6 chain: RRRRRRRRR

Data set [6] addresses T5, Inducible T cell Kinase (ITK), …. The data set is described as follows: competition in cells: co-IP of ITK with SLP76 from stimulated Jurkat cells against peptide concentration (association index, average of three experiments). Here is the method:
as §2, §3

In the case of RRRRRRRRRQQPPVPPQRPMA [R9-QQP], the IC50 at ITK [1] was roughly 1000 nM; at ITK [2] it was roughly 1000 nM; on ITK-SLP76 interaction (Jurkat cells, read-out: concentration for 50% inhibition in the ITK-SLP 76 association), roughly 1000 nM. In the data set on Jurkat cells, the “toxic effects on Jurkat cells (viability)” value was “no toxic effects”. Also, at SH3 domain of ITK, the Kd is 770 nM. The inhibition at 1 µM on ITK-SLP76 interaction (1 μM of peptide, Jurkat cells stimulated 1 minute) was roughly 50%.

B1: SLP76, endogenous in Jurkat T cells (other, UniProt Q13094 1-533, looked up)
chain: MALRNVPFRSEVLGWDPDSLADYFKKLNYKDCEKAVKKYHIDGARFLNLTENDIQKFPKLRVPILSKLSQEINKNEERRSIFTRKPQVPRFPEETESHEEDNGGWSSFEEDDYESPNDDQDGEDDGDYESPNEEEEAPVEDDADYEPPPSNDEEALQNSILPAKPFPNSNSMYIDRPPSGKTPQQPPVPPQRPMAALPPPPAGRNHSPLPPPQTNHEEPSRSRNHKTAKLPAPSIDRSTKPPLDRSLAPFDREPFTLGKKPPFSDKPSIPAGRSLGEHLPKIQKPPLPPTTERHERSSPLPGKKPPVPKHGWGPDRRENDEDDVHQRPLPQPALLPMSSNTFPSRSTKPSPMNPLPSSHMPGAFSESNSSFPQSASLPPYFSQGPSNRPPIRAEGRNFPLPLPNKPRPPSPAEEENSLNEEWYVSYITRPEAEAALRKINQDGTFLVRDSSKKTTTNPYVLMVLYKDKVYNIQIRYQKESQVYLLGTGLRGKEDFLSVSDIIDYFRKMPLLLIDGKNRGSRYQCTLTHAAGYP
notes: whole, on cells; Endogenous intracellular adaptor protein, immunoprecipitated from Jurkat lysates with anti-SLP76 antibody
Take B1: the binding result in data set [3] is recorded as “binds”.

B2: ITK, endogenous in mouse splenic lymphocytes (protein)
chain: MNNFILLEEQLIKKSQQKRRTSPSNFKVRFFVLTKASLAYFEDRHGKKRTLKGSIELSRIKCVEIVKSDISIPCHYKYPFQTLVYLQVVHDNYLLYVFAPDCESRQRWVLTLKEETRNNNSLVSKYHPNFWMDGRWRCCSQLEKPAVGCAPYDPSKNASKKPLPPTPEDNRRSFQEPEETLVIALYDYQTNDPQELALRCDEEYYLLDSSEIHWWRVQDKNGHEGYAPSSYLVEKSPNNLETYEWYNKSISRDKAEKLLLDTGKEGAFMVRDSRTPGTYTVSVFTKAIISENPCIKHYHIKETNDSPKRYYVAEKYVFDSIPLLIQYHQYNGGGLVTRLRYPVCSWRQKAPVTAGLRYGKWVIQPSELTFVQEIGSGQFGLVHLGYWLNKDKVAIKTIQEGAMSEEDFIEEAEVMMKLSHPKLVQLYGVCLEQAPICLVFEFMEHGCLSDYLRSQRGLFAAETLLGMCLDVCEGMAYLEKACVIHRDLAARNCLVGENQVIKVSDFGMTRFVLDDQYTSSTGTKFPVKWASPEVFSFSRYSSKSDVWSFGVLMWEVFSEGKIPYENRSNSEVVEDISTGFRLYKPRLASCHVYQIMNHCWKEKPEDRPPFSQLLSQLAEIAEAGL
As for B2, the “ITK Tyr 511 phosphorylation, flow cytometry, primary mouse splenic lymphocytes” value in data set [4] and in data set [5] was “None of the two control peptides had significant effects on the phosphorylation of ITK in either Jurkat or primary mouse splenic lymphocytes” in each case.

B3: R9-QQP, arginine-SLP76 peptide conjugate RRRRRRRRRQQPPVPPQRPMA (peptide)
peptide: RRRRRRRRRQQPPVPPQRPMA
notes: Synthetic cell-penetrating peptide; It was loaded into Jurkat cells or mouse splenocytes, or injected intraperitoneally into mice; A fluorescein-labelled version was used only for uptake studies, which are not recorded; also called Arg-SLP76 conjugate peptide; polyArg-SLP76 peptide conjugate
For B3, the IC50 in data set [6] is roughly 1000 nM.

As a reminder, the Kd is a measure of binding affinity in units of concentration. The inhibition is the share of the control response that was lost under treatment. Low readings indicate a response near the control, high ones a response far below the control.
